pEC50: −log10 of the molar value.
Target: T1, HDAC1 (Homo sapiens, UniProt Q13547)
T1 construct: HDAC1-NanoLuc fusion protein
Experiment: NanoBRET target engagement in live TT cells, competitive displacement of HDAC Tracer-01
Format: cell-based
From the text: NanoBRET target engagement in live TT cells, competitive displacement of HDAC Tracer-01 on HDAC1 | TDP-A dose-dependently attenuated BRET from intracellular HDAC1-NanoLuc fusion protein (Figure 1B) in low nanomolar concentrations

T1 sequence (Q13547 whole entry, the tested form may be a part): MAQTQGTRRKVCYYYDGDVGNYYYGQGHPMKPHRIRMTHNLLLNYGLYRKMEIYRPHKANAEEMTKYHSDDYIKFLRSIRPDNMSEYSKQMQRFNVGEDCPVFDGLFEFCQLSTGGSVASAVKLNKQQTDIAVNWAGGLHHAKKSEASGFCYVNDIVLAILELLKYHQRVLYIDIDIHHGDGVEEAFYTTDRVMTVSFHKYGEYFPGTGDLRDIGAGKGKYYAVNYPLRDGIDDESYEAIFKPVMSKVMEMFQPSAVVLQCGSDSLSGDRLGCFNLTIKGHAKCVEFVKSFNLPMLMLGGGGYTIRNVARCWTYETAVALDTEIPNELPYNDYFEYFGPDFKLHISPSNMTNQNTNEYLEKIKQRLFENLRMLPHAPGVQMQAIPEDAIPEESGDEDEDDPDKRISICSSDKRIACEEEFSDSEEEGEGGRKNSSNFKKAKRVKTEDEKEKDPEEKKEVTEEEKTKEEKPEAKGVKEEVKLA

- pEC50: 8.17
Structure (SMILES): CC[C@H](C)[C@H]1NC(=O)[C@H]2CSSCC/C=C/[C@H](CC(=O)N[C@H](CCSC)C(=O)N2)OC(=O)C[C@@H]1O [TDP-A, thailandepsin A]

— article PMC5642598, “Histone deacetylase inhibitor thailandepsin-A activates Notch signaling and suppresses neuroendocrine cancer cell growth in vivo” (Oncotarget, 2017)
